# How the values were obtained:
# [1] = test system: RAW264.7; test: Inhibition of LPS-induced TNFalpha production in mouse RAW264.7 cells at 50 uM preincubated for 2 hrs followed by LPS treatment for 24 hrs by RT-qPCR analysis relative to control; assay type: functional; settings: time 26 hrs
# [2] = test system: RAW264.7; test: Inhibition of LPS-induced TNFalpha production in mouse RAW264.7 cells preincubated for 2 hrs followed by LPS treatment for 24 hrs by RT-qPCR analysis; assay type: functional, cell-based
# [3] = test system: P-gp (human); test: Efflux ratio of apparent permeability in dog MDCK-MDR1 cells transfected with human P-gp; assay type: ADME, cell-based, Canis lupus familiaris
# [4] = AUC (0 to t) in 12 hr starved C57 mouse at 5 mg/kg, iv measured for 0.083 to 24 hrs post-dose by LC-MS-MS analysis; assay type: ADME, organism-based; design: time lower 0.083 hrs, dose 5 mg/kg, time upper 24 hrs, route iv; settings: in vivo
# [5] = test system: Mus musculus; test: Anti-ulcerative colitis activity in DSS-induced C57BL/6 mouse ulcerative colitis model assessed as histopathological score recovery ratio at 3 mg/kg, IG via gavage measured after 7 days by H and E staining method relative to control; assay type: functional; settings: time 7 day
# [6] = test system: Mus musculus; test: Antiinflammatory activity against DSS-induced C57BL/6 mouse model of acute ulcerative colitis assessed as inhibition ratio of IL-1beta protein expression at 10 mg/kg, IG via gavage measured after 7 days by ELISA relative to control; assay type: functional; design: scale not given: the % may be the effect or the level left; settings: time 7 day
# [7] = test system: Mus musculus; test: Antiinflammatory activity against DSS-induced C57BL/6 mouse model of acute ulcerative colitis assessed as inhibition ratio of IL-23 protein expression at 10 mg/kg, IG via gavage measured after 7 days by ELISA relative to control; assay type: functional; design: scale not given: the % may be the effect or the level left; settings: time 7 day
# [8] = test system: Mus musculus; test: Antiinflammatory activity against DSS-induced C57BL/6 mouse model of acute ulcerative colitis assessed as inhibition of TNF-alpha mRNA expression in colon tissue administered intragastrically via gavage measured after 7 days by RT-qPCR analysis; assay type: functional, organism-based; settings: route ig, time 7.0 day, DDE = dose-dependent effect
# [9] = test system: Mus musculus; test: Antiinflammatory activity against DSS-induced C57BL/6 mouse model of acute ulcerative colitis assessed as inhibition ratio of TNF-alpha mRNA expression in colon tissue at 1 mg/kg, IG via gavage measured after 7 days by RT-qPCR analysis relative to control; assay type: functional; design: scale not given: the % may be the effect or the level left; settings: time 7 day
# [10] = test system: Mus musculus; test: Antiinflammatory activity against DSS-induced C57BL/6 mouse model of acute ulcerative colitis assessed as inhibition ratio of IL-23 mRNA expression in colon tissue at 1 mg/kg, IG via gavage measured after 7 days by RT-qPCR analysis relative to control; assay type: functional; design: scale not given: the % may be the effect or the level left; settings: time 7 day
# [11] = test system: Mus musculus; test: Antiinflammatory activity against DSS-induced C57BL/6 mouse model of acute ulcerative colitis assessed as inhibition ratio of IL-23 mRNA expression in colon tissue at 10 mg/kg, IG via gavage measured after 7 days by RT-qPCR analysis relative to control; assay type: functional; design: scale not given: the % may be the effect or the level left; settings: time 7 day
# [12] = test system: Mus musculus; test: Anti-ulcerative colitis activity in IL-10-/- C57BL/6 mouse model of ulcerative colitis assessed as body weight recovery ratio at 10 mg/kg, IG via gavage for 8 weeks and measured everyday relative to control; assay type: functional
# [13] = test system: Mus musculus; test: Anti-ulcerative colitis activity in IL-10-/- C57BL/6 mouse model of ulcerative colitis assessed as colon length recovery ratio at 3 mg/kg, IG via gavage for 8 weeks relative to control; assay type: functional
# [14] = test system: Mus musculus; test: Antiinflammatory activity against IL-10-/- C57BL/6 mouse model of ulcerative colitis assessed as inhibition ratio of IL-1beta protein expression at 10 mg/kg, IG via gavage and measured after 8 weeks by ELISA relative to control; assay type: functional; design: scale not given: the % may be the effect or the level left
# [15] = test system: Mus musculus; test: Antiinflammatory activity against IL-10-/- C57BL/6 mouse model of ulcerative colitis assessed as inhibition ratio of IL-23 protein expression at 10 mg/kg, IG via gavage and measured after 8 weeks by ELISA relative to control; assay type: functional; design: scale not given: the % may be the effect or the level left
# [16] = test system: Mus musculus; test: Antiinflammatory activity against IL-10-/- C57BL/6 mouse model of ulcerative colitis assessed as inhibition ratio of IL-6 mRNA expression in colon tissue at 1 mg/kg, IG via gavage and measured after 8 weeks by RT-qPCR analysis relative to control; assay type: functional; design: scale not given: the % may be the effect or the level left
# [17] = test system: Mus musculus; test: Antiinflammatory activity against IL-10-/- C57BL/6 mouse model of ulcerative colitis assessed as inhibition ratio of IL-23 mRNA expression in colon tissue at 1 mg/kg, IG via gavage and measured after 8 weeks by RT-qPCR analysis relative to control; assay type: functional; design: scale not given: the % may be the effect or the level left
# [18] = test system: RAW264.7; test: Inhibition of MKK3-p38-elF4E signaling pathway in mouse RAW264.7 cells assessed as reduction in LPS-induced Mnk1 phosphorylation treated for 1.5 hrs followed by LPS treatment for 1 hr by Western blot analysis; assay type: cell-based; settings: dose 3.125-12.5 µmol/L, time 2.5 hrs, DDE = dose-dependent effect
# [19] = test system: Mus musculus; test: Inhibition of MKK3-p38 MAPK-elF4E signaling pathway in C57BL/6 mouse model of acute ulcerative colitis assessed as decrease in DSS-induced elF4E phosphorylation in colon tissue administered intragastrically via gavage measured after 7 days by Western blot analysis; settings: dose 1-50 mg/kg, time 7.0 day, DDE = dose-dependent effect
# [20] = test system: Mus musculus; test: Anti-ulcerative colitis activity against DSS-induced ulcerative colitis C57BL/6 mouse model assessed as body weight recovery rate at 1 mg/kg, IG via gavage administered for 7 days and measured everyday relative to control; assay type: functional; settings: time 7 day
# [21] = Toxicity in C57 mouse assessed as liver damage at 50 to 500 mg/kg, po administered daily for 14 days; assay type: organism-based; settings: in vivo, 336 h, dose 50-500 mg/kg, time 14 day
# [22] = Toxicity in C57 mouse assessed as spleen damage at 50 to 500 mg/kg, po administered daily for 14 days; assay type: organism-based; settings: in vivo, 336 h, dose 50-500 mg/kg, time 14 day
# [23] = Toxicity in C57 mouse assessed as kidney damage at 50 to 500 mg/kg, po administered daily for 14 days; assay type: organism-based; settings: in vivo, 336 h, dose 50-500 mg/kg, time 14 day
# [24] = test system: Mus musculus; test: Anti-ulcerative colitis activity against DSS-induced ulcerative colitis C57BL/6 mouse model assessed as reduction in DAI recovery score ratio at 10 mg/kg, IG via gavage administered for 7 days and measured everyday relative to control; assay type: functional; design: scale not given: the % may be the effect or the level left; settings: time 7 day
# [25] = test system: Mus musculus; test: Anti-ulcerative colitis activity against DSS-induced ulcerative colitis C57BL/6 mouse model assessed as reduction in DAI recovery score ratio at 50 mg/kg, IG via gavage administered for 7 days and measured everyday relative to control; assay type: functional; design: scale not given: the % may be the effect or the level left; settings: time 7 day
# [26] = molecular target: T1, Dual specificity mitogen-activated protein kinase kinase 3 (Homo sapiens) (UniProt P46734); test: Inhibition of human MMK3 at 50 uM using SAPK2a as substrate incubated for 120 mins in presence of [gamma-33P]-ATP by scintillation counting method relative to control
# T1 sequence (whole entry): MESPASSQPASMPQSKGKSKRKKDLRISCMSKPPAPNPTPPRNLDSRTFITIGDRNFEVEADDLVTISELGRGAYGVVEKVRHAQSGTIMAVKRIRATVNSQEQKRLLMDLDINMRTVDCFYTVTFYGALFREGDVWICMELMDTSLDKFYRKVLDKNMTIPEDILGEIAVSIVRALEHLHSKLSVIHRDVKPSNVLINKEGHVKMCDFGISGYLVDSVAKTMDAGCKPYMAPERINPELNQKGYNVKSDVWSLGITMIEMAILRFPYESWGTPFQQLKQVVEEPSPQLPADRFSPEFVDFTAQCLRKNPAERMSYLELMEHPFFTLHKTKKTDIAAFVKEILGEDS
structure (smiles),measurement,setting,value
COc1ccc([C@H]2CC(=O)c3cc(OC)cc(OC)c32)cc1,inhibition at 50 µM,[1],62.3%
same,IC50,[2],580 nM
same,efflux ratio,[3],0.33
same,AUC(0-t),[4],7250 ng·h/mL
same,Activity,[5],41.7%
same,Activity,[6],64.4%
same,Activity,[7],52.3%
same,Activity,[8],Dde
same,Activity,[9],68.6%
same,Activity,[10],71.7%
same,Activity,[11],90.5%
same,Activity,[12],19.4%
same,Activity,[13],29.4%
same,Activity,[14],51.8%
same,Activity,[15],64.4%
same,Activity,[16],26.3%
same,Activity,[17],31%
same,inhibition,[18],Dde
same,inhibition,[19],Dde
same,Activity,[20],22.7%
same,Activity,[21],Non-Toxic
same,Activity,[22],Non-Toxic
same,Activity,[23],Non-Toxic
same,Activity,[24],45%
same,Activity,[25],22.7%
same,inhibition,[26],< 10%

# Source: ChEMBL document CHEMBL5154881, “Discovery of First-in-Class TAK1-MKK3 Protein-Protein Interaction (PPI) Inhibitor (R)-STU104 for the Treatment of Ulcerative Colitis through Modulating TNF-α Production” (J Med Chem, 2022)
